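1) Cells in 96-well plates. 2) Compound, 48 h, 5 concentrations. 3) Linear interpolation between surrounding doses. 4) Unreached endpoint = highest concentration. Here, GI50 denotes the concentration required for 50% inhibition of growth. TGI marks complete inhibition of growth.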
Assays:
Test in all cases: DTP human tumour cell line panel, 48 h
[1] = tested on: ACHN renal
[2] = tested on: HOP-92 NSCLC
[3] = tested on: LOX IMVI melanoma
[4] = tested on: MCF7 breast
[5] = tested on: MDA-MB-231 breast
[6] = tested on: NCI-H460 lung
[7] = tested on: SN12C renal
[8] = tested on: SR leukemia
[9] = tested on: TK-10 renal
[10] = tested on: HL-60(TB) leukemia

SMILES	GI50 [1]	TGI [1]	GI50 [2]	TGI [2]	GI50 [3]	TGI [3]	GI50 [4]	TGI [4]	GI50 [5]	TGI [5]	GI50 [6]	TGI [6]	GI50 [7]	TGI [7]	GI50 [8]	TGI [8]	GI50 [9]	TGI [9]	GI50 [10]	TGI [10]
O=C(Nc1ccccc1)Nc1ccc2cc3ccc(NC(=O)Nc4ccccc4)cc3nc2c1	3.57 µM	> 100 µM	1.58 µM	3.2 µM	0.467 µM	1.67 µM	1.08 µM	3.14 µM	1.4 µM	2.8 µM	3.95 µM	> 100 µM	1.34 µM	2.72 µM	0.287 µM	0.734 µM	3.98 µM	9.12 µM		
CC1=C(c2ccccc2)C(O)(c2ccccc2)C(C)C1=O (configuration not stated)	35.6 µM	> 100 µM	4.07 µM	65 µM	15.3 µM	> 100 µM	13 µM	> 100 µM	14 µM	> 100 µM	25.1 µM	> 100 µM	15.4 µM	> 100 µM	3.75 µM	> 100 µM	30.1 µM	> 100 µM	16.6 µM	87.4 µM
O=S(=O)(NNc1ccccc1)c1ccccc1		15.8 µM		55.4 µM		13.6 µM		28.8 µM		17.5 µM		21.2 µM		18.7 µM		53.1 µM		> 100 µM		13.5 µM
Nc1ccc(C2=CC(c3ccc(Cl)cc3)N3C=CSC3=N2)cc1 (configuration not stated)	2.02 µM	4.46 µM	17.7 µM	72.4 µM	2.34 µM	5.65 µM	1.22 µM	4.52 µM	4.76 µM	46.9 µM	20.2 µM	> 100 µM	6.4 µM	26.9 µM	2.1 µM	5.51 µM	11 µM	28.5 µM	6.13 µM	53.5 µM
COCc1c(-c2cc3cc(C)cc(OC)c3s2)c2c(N)ncnn2c1CN1CCNC(=O)C1	4.31 µM	55.5 µM	1.29 µM	5.92 µM	3.05 µM	13.5 µM	3.82 µM	33.6 µM	6.11 µM	61.4 µM	4.05 µM	> 100 µM	4.02 µM	67.1 µM	3.81 µM	40.5 µM	3.64 µM	30.6 µM	8.71 µM	32.7 µM
Cc1ccc(/C=N/Nc2nc(Nc3ccccc3)nc(-n3nc(C)cc3C)n2)cc1	4.44 µM	56.6 µM	2.28 µM	10.9 µM	3.81 µM	22.1 µM	2.89 µM	10.6 µM	6.44 µM	> 100 µM	2.11 µM	8.91 µM	3.11 µM	92.4 µM	3.31 µM	> 100 µM	3.52 µM	22.9 µM	2.51 µM	84.8 µM
COc1ccc(CN2c3ccccc3Sc3ccccc32)c(C(F)(F)F)c1	0.666 µM	> 100 µM	0.227 µM	44.9 µM	0.832 µM	33.3 µM	0.349 µM	36.8 µM	3.05 µM	58.6 µM	0.456 µM	> 100 µM	9.73 µM	> 100 µM	0.483 µM	> 100 µM	5.82 µM	> 100 µM	0.412 µM	13.9 µM
COc1ccc2c(c1OC)CO[C@@H]2[C@H]1c2c(cc3c(c2OC)OCO3)CCN1S(=O)(=O)c1cn(C)cn1	1.73 µM	> 100 µM	0.783 µM	87.4 µM	4.48 µM	> 100 µM	0.407 µM	> 100 µM	4.49 µM	> 100 µM	2.87 µM	26.8 µM	3.9 µM	> 100 µM	0.902 µM	> 100 µM	> 100 µM	> 100 µM	1.66 µM	4.9 µM
CCN(Cc1ccccc1)C1CCN(Cc2cc(Br)ccc2O)CC1	79.7 µM	> 100 µM	10.4 µM	> 100 µM	23.3 µM	63.6 µM	27.8 µM	> 100 µM	31.6 µM	> 100 µM	58.2 µM	> 100 µM	42.9 µM	> 100 µM	27.8 µM	> 100 µM	> 100 µM	> 100 µM	31.3 µM	98.8 µM
CCC(C)[C@H](NC(=O)Nc1cc(C(F)(F)F)cc(C(F)(F)F)c1)C(=O)N[C@@H](Cc1cn(C)cn1)C(=O)OC (some centres not stated)	1.4 µM	2.01 µM	1.31 µM	1.89 µM	0.768 µM	1.83 µM	0.513 µM	1.08 µM	0.619 µM	1.12 µM	0.895 µM	1.89 µM	0.544 µM	1.05 µM	0.801 µM	2.08 µM	3.65 µM		1.35 µM	3.22 µM
CC1=C(SCCC(=O)OC(C[Se]C2=C(C)C(=O)c3ccccc3C2=O)C(=O)NCCCCCC(=O)OCc2ccccc2)C(=O)c2ccccc2C1=O (configuration not stated)	12.1 µM	27.6 µM	2.7 µM	7.89 µM	2.75 µM	11.5 µM	4.75 µM	29.6 µM	6.81 µM	22 µM	1.9 µM	4.54 µM	4.63 µM	16.7 µM			13.8 µM	27.2 µM	3.09 µM	8.52 µM
NC(=O)c1cc([N+](=O)[O-])c(Cl)c([N+](=O)[O-])c1Cl	1.63 µM	3.71 µM	1.84 µM	3.45 µM	0.33 µM	1.16 µM	0.893 µM	2.64 µM	1.79 µM	3.39 µM	1.74 µM	3.49 µM	1.75 µM	3.27 µM	0.516 µM	4.8 µM	1.61 µM	2.99 µM		
O=C(CCCN1CCC(O)(c2ccc(Cl)cc2)CC1)c1ccc(F)cc1		> 100 µM		> 100 µM		33.1 µM		> 100 µM		51.5 µM		45.1 µM		> 100 µM		> 100 µM		> 100 µM		

From PubChem BioAssay (NCI)
